The subject of the assay is apyrase. Nature of the assay: Screen for apyrase inhibitors (Method 1, in vitro phosphate-release absorbance assay). Type of assay: biochemical. The note with it: inhibitor conc at 1 mM stock, 1 hr room temperature, absorbance 630 nm; rounded average of two assay results. A digest of the protocol:
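Phosphate-release colorimetric assay (Windsor method) in 60 mM Hepes, 3 mM MgCl2, 3 mM CaCl2, 3 mM ATP, pH 6.5, with compound or DMSO control added. Released phosphate developed with ammonium molybdate and ascorbic acid/TCA, then stopped with citrate/acetic acid.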
For `O=C(Nc1cnccn1)c1cccc(NS(=O)(=O)c2c(F)cccc2F)c1` [I-659, 3-((2,6-difluorophenyl)sulfonamido)-N-(pyrazin-2-yl)benzamide], the “% Inhibition of Apyrase” value is given as 31%.
For `COC(=O)C1(c2ccc(Br)cc2)CCN(C(=O)c2cccc(S(=O)(=O)Nc3ccc(Br)cc3)c2)C1` (stereo not shown) [I-269, methyl 3-(4-bromophenyl)-1-(3-(N-(4-bromophenyl)sulfamoyl)benzoyl)pyrrolidine-3-carboxylate], the “% Inhibition of Apyrase” value amounted to 57%.
Turning to `COc1ccc([N+](=O)[O-])cc1NS(=O)(=O)c1ccc(C(=O)N2CCc3ccccc32)cc1` [I-892, 4-(indoline-1-carbonyl)-N-(2-methoxy-5-nitrophenyl)benzenesulfonamide], the “% Inhibition of Apyrase” value was 29%.
As to `O=C(c1cccc(S(=O)(=O)Nc2ccc(Br)cc2)c1)N1CCc2ccccc21` [I-13, N-(4-bromophenyl)-3-(indoline-1-carbonyl)benzenesulfonamide], the “% Inhibition of Apyrase” value is 59%.
`CCOc1ccc(NS(=O)(=O)c2cccc(C(=O)Nc3ccc(OC)cc3)c2)cc1` [I-614, 3-(N-(4-ethoxyphenyl)sulfamoyl)-N-(4-methoxyphenyl)benzamide]: the “% Inhibition of Apyrase” value was 1%.
For `COc1cccc(S(=O)(=O)Nc2ccc(C(=O)Nc3cccc(C(F)(F)F)c3)cc2)c1` [I-916, 4-((3-methoxyphenyl)sulfonamido)-N-(3-(trifluoromethyl)phenyl)benzamide], the “% Inhibition of Apyrase” value is reported as 58%.
In the case of `O=C(Nc1ccccc1OC(F)F)c1ccc(NS(=O)(=O)c2ccccc2)cc1` [I-960, N-(2-(difluoromethoxy)phenyl)-4-(phenylsulfonamido)benzamide] it was 14%; in that of `CN(c1ccccc1)S(=O)(=O)c1ccc(C(=O)N2CCc3ccccc32)cc1` [I-865, 4-(indoline-1-carbonyl)-N-methyl-N-phenylbenzenesulfonamide], 59%; in that of `COc1ccc([N+](=O)[O-])cc1NS(=O)(=O)c1ccc(C(=O)Nc2ccc(F)cc2F)cc1` [I-412, N-(2,4-difluorophenyl)-4-(N-(2-methoxy-5-nitrophenyl)sulfamoyl)benzamide], 18%.
As to `O=C(NCc1ccco1)c1cccc(S(=O)(=O)Nc2ccc(Br)cc2)c1` [I-48, 3-(N-(4-bromophenyl)sulfamoyl)-N-(furan-2-ylmethyl)benzamide], the “% Inhibition of Apyrase” value turned out to be 11%.
In the case of `Cc1ccc(NS(=O)(=O)c2ccc(C(=O)Nc3cccc(S(=O)(=O)N4CCCC4)c3)cc2)cc1` [I-204, N-(3-(pyrrolidin-1-ylsulfonyl)phenyl)-4-(N-(p-tolyl)sulfamoyl)benzamide], the “% Inhibition of Apyrase” value turned out to be 69%.
Regarding `O=C(Nc1ccccc1C(=O)N1CCCCC1)c1cccc(S(=O)(=O)N2CCc3ccccc32)c1` [I-572, 3-(indolin-1-ylsulfonyl)-N-(2-(piperidine-1-carbonyl)phenyl)benzamide], the “% Inhibition of Apyrase” value was 50%.
In the case of `O=C(c1cccc(S(=O)(=O)N(Cc2ccccc2)c2cccc(C(F)(F)F)c2)c1)N1CCc2ccccc21` [I-457, N-benzyl-3-(indoline-1-carbonyl)-N-(3-(trifluoromethyl)phenyl)benzenesulfonamide] it was 60%.
As to `O=C(Nc1ccc(S(=O)(=O)Nc2cccc(C(F)(F)F)c2)cc1)c1ccccc1` [I-1000, N-(4-(N-(3-(trifluoromethyl)phenyl)sulfamoyl)phenyl) benzamide], the “% Inhibition of Apyrase” value came to 28%.
In the case of `COc1ccccc1NC(=O)c1cccc(S(=O)(=O)N2CCc3ccccc32)c1` [I-467, 3-(indolin-1-ylsulfonyl)-N-(2-methoxyphenyl)benzamide] it was 59%; in that of `Cc1ccc(NS(=O)(=O)c2ccc(C(=O)Nc3ccccc3C)cc2)cc1` [I-394, N-(o-tolyl)-4-(N-(p-tolyl)sulfamoyl)benzamide], 54%.
